Experimental data taken from patent US12660819B2, “Herbicidal derivatives” (SYNGENTA CROP PROTECTION AG, priority 2020, dated 2026).

Assays:
Type in all cases: in vivo
[1] = system: Amaranthus retoflexus (AMARE); assay: Post-emergence Test (glasshouse, percentage damage to the plant); conditions: post-emergence spray, 1000 g/ha unless otherwise stated, evaluated after 13 days
Outline: (§1)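 Scored 13 days after spraying as percentage plant damage in five bands (5=81–100%, 4=61–80%, 3=41–60%, 2=21–40%, 1=0–20%). Spray at 1000 g/ha unless stated, in acetone/water 50:50 plus 0.5% Tween 20, onto sown glasshouse pots (24/16 °C, 14 h light, 65% humidity).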

[2] = system: Echinochloa crus-galli (ECHCG); assay: as above; conditions: post-emergence spray, 1000 g/ha unless otherwise stated, evaluated after 13 days
Outline: as §1

[3] = system: Ipomoea hederacea (IPOHE); assay: as above; conditions: post-emergence spray, 1000 g/ha unless otherwise stated, evaluated after 13 days
Outline: (§2)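 Sown pots; spray 1000 g/ha (unless stated) in acetone/water 50:50 + 0.5% Tween 20; glasshouse 24/16 °C, 14 h light, 65% RH; watered twice daily; % damage read at 13 days, scored 1–5.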

Lolium perenne (LOLPE) [4] = assay: as above; conditions: post-emergence spray, 1000 g/ha unless otherwise stated, evaluated after 13 days
Outline: as §1

Setaria faberi (SETFA) [5] = assay: as above; conditions: post-emergence spray, 1000 g/ha unless otherwise stated, evaluated after 13 days
Outline: as §2

Solanum nigrum (SOLNI) [6] = assay: as above; conditions: post-emergence spray, 1000 g/ha unless otherwise stated, evaluated after 13 days
Outline: as §1

[7] = system: Amaranthus retoflexus (AMARE); assay: Pre-emergence Test (glasshouse, percentage damage to the plant); conditions: 1000 g/ha unless otherwise stated, five-point scale
Solanum nigrum (SOLNI) [8] = assay: as above; conditions: 1000 g/ha unless otherwise stated, five-point scale
Setaria faberi (SETFA) [9] = assay: as above; conditions: 1000 g/ha unless otherwise stated, five-point scale
Lolium perenne (LOLPE) [10] = assay: as above; conditions: 1000 g/ha unless otherwise stated, five-point scale
[11] = system: Echinochloa crus-galli (ECHCG); assay: as above; conditions: 1000 g/ha unless otherwise stated, five-point scale
[12] = system: Ipomoea hederacea (IPOHE); assay: as above; conditions: 1000 g/ha unless otherwise stated, five-point scale

CCn1c(C)c(-c2ccc(S(C)(=O)=O)cc2)c(=O)c(C(=O)O)c1-c1ccc(Cl)c(Cl)c1 [Compound 32, 2-(3,4-dichlorophenyl)-1-ethyl-6-methyl-5-(4-methylsulfonylphenyl)-4-oxo-pyridine-3-carboxylic acid]
Post-emergence Test AMARE, percentage damage to the plant (five-point scale) [1]: 1 (1=0-20%) | Post-emergence Test ECHCG, percentage damage to the plant (five-point scale) [2]: 4 (4=61-80%) | Post-emergence Test IPOHE, percentage damage to the plant (five-point scale) [3]: 1 (1=0-20%) | Post-emergence Test LOLPE, percentage damage to the plant (five-point scale) (Lolium perenne (LOLPE) [4]): 1 (1=0-20%) | Post-emergence Test SETFA, percentage damage to the plant (five-point scale) (Setaria faberi (SETFA) [5]): 3 (3=41-60%) | Post-emergence Test SOLNI, percentage damage to the plant (five-point scale) (Solanum nigrum (SOLNI) [6]): 3 (3=41-60%) | percentage damage to the plant, AMARE [7]: 1 (1=0-20%) | percentage damage to the plant, SOLNI (Solanum nigrum (SOLNI) [8]): 1 (1=0-20%) | percentage damage to the plant, SETFA (Setaria faberi (SETFA) [9]): 4 (4=61-80%) | percentage damage to the plant, LOLPE (Lolium perenne (LOLPE) [10]): 1 (1=0-20%) | percentage damage to the plant, ECHCG [11]: 4 (4=61-80%) | percentage damage to the plant, IPOHE [12]: 1 (1=0-20%)

CCn1c(C)c(-c2ccoc2)c(=O)c(C(=O)O)c1-c1ccc(Cl)c(Cl)c1 [Compound 33, 2-(3,4-dichlorophenyl)-1-ethyl-5-(3-furyl)-6-methyl-4-oxo-pyridine-3-carboxylic acid]
Post-emergence Test AMARE, percentage damage to the plant (five-point scale) [1]: 3 (3=41-60%) | Post-emergence Test ECHCG, percentage damage to the plant (five-point scale) [2]: 2 (2=21-40%) | Post-emergence Test IPOHE, percentage damage to the plant (five-point scale) [3]: 3 (3=41-60%) | Post-emergence Test LOLPE, percentage damage to the plant (five-point scale) (Lolium perenne (LOLPE) [4]): 2 (2=21-40%) | Post-emergence Test SETFA, percentage damage to the plant (five-point scale) (Setaria faberi (SETFA) [5]): 1 (1=0-20%) | Post-emergence Test SOLNI, percentage damage to the plant (five-point scale) (Solanum nigrum (SOLNI) [6]): 3 (3=41-60%) | percentage damage to the plant, AMARE [7]: 1 (1=0-20%) | percentage damage to the plant, SOLNI (Solanum nigrum (SOLNI) [8]): 1 (1=0-20%) | percentage damage to the plant, SETFA (Setaria faberi (SETFA) [9]): 1 (1=0-20%) | percentage damage to the plant, LOLPE (Lolium perenne (LOLPE) [10]): 1 (1=0-20%) | percentage damage to the plant, ECHCG [11]: 1 (1=0-20%) | percentage damage to the plant, IPOHE [12]: 2 (2=21-40%)

CCn1c(C)c(-c2ccc(OCc3ccccc3)cc2)c(=O)c(C(=O)O)c1-c1ccc(Cl)c(Cl)c1 [Compound 34, 5-(4-benzyloxyphenyl)-2-(3,4-dichlorophenyl)-1-ethyl-6-methyl-4-oxo-pyridine-3-carboxylic acid]
Post-emergence Test AMARE, percentage damage to the plant (five-point scale) [1]: 4 (4=61-80%) | Post-emergence Test ECHCG, percentage damage to the plant (five-point scale) [2]: 2 (2=21-40%) | Post-emergence Test IPOHE, percentage damage to the plant (five-point scale) [3]: 1 (1=0-20%) | Post-emergence Test LOLPE, percentage damage to the plant (five-point scale) (Lolium perenne (LOLPE) [4]): 1 (1=0-20%) | Post-emergence Test SETFA, percentage damage to the plant (five-point scale) (Setaria faberi (SETFA) [5]): 2 (2=21-40%) | Post-emergence Test SOLNI, percentage damage to the plant (five-point scale) (Solanum nigrum (SOLNI) [6]): 4 (4=61-80%) | percentage damage to the plant, AMARE [7]: 3 (3=41-60%) | percentage damage to the plant, SOLNI (Solanum nigrum (SOLNI) [8]): 2 (2=21-40%) | percentage damage to the plant, SETFA (Setaria faberi (SETFA) [9]): 3 (3=41-60%) | percentage damage to the plant, LOLPE (Lolium perenne (LOLPE) [10]): 2 (2=21-40%) | percentage damage to the plant, ECHCG [11]: 1 (1=0-20%) | percentage damage to the plant, IPOHE [12]: 1 (1=0-20%)

CCn1c(C)c(-c2ccnnc2)c(=O)c(C(=O)O)c1-c1ccc(Cl)c(Cl)c1 [Compound 35, 2-(3,4-dichlorophenyl)-1-ethyl-6-methyl-4-oxo-5-pyridazin-4-yl-pyridine-3-carboxylic acid;2,2,2-trifluoroacetic acid, 2,2,2-trifluoroacetate]
Post-emergence Test AMARE, percentage damage to the plant (five-point scale) [1]: 1 (1=0-20%) | Post-emergence Test ECHCG, percentage damage to the plant (five-point scale) [2]: 2 (2=21-40%) | Post-emergence Test IPOHE, percentage damage to the plant (five-point scale) [3]: 1 (1=0-20%) | Post-emergence Test LOLPE, percentage damage to the plant (five-point scale) (Lolium perenne (LOLPE) [4]): 1 (1=0-20%) | Post-emergence Test SETFA, percentage damage to the plant (five-point scale) (Setaria faberi (SETFA) [5]): 2 (2=21-40%) | Post-emergence Test SOLNI, percentage damage to the plant (five-point scale) (Solanum nigrum (SOLNI) [6]): 1 (1=0-20%) | percentage damage to the plant, AMARE [7]: 1 (1=0-20%) | percentage damage to the plant, SOLNI (Solanum nigrum (SOLNI) [8]): 1 (1=0-20%) | percentage damage to the plant, SETFA (Setaria faberi (SETFA) [9]): 1 (1=0-20%) | percentage damage to the plant, LOLPE (Lolium perenne (LOLPE) [10]): 1 (1=0-20%) | percentage damage to the plant, ECHCG [11]: 1 (1=0-20%) | percentage damage to the plant, IPOHE [12]: 1 (1=0-20%)

CCn1c(C)c(-c2ccc([N+](=O)[O-])cc2)c(=O)c(C(=O)O)c1-c1ccc(Cl)c(Cl)c1 [Compound 36, 2-(3,4-dichlorophenyl)-1-ethyl-6-methyl-5-(4-nitrophenyl)-4-oxo-pyridine-3-carboxylic acid]
Post-emergence Test AMARE, percentage damage to the plant (five-point scale) [1]: 1 (1=0-20%) | Post-emergence Test ECHCG, percentage damage to the plant (five-point scale) [2]: 5 (5=81-100%) | Post-emergence Test IPOHE, percentage damage to the plant (five-point scale) [3]: 1 (1=0-20%) | Post-emergence Test LOLPE, percentage damage to the plant (five-point scale) (Lolium perenne (LOLPE) [4]): 1 (1=0-20%) | Post-emergence Test SETFA, percentage damage to the plant (five-point scale) (Setaria faberi (SETFA) [5]): 4 (4=61-80%) | Post-emergence Test SOLNI, percentage damage to the plant (five-point scale) (Solanum nigrum (SOLNI) [6]): 2 (2=21-40%) | percentage damage to the plant, AMARE [7]: 1 (1=0-20%) | percentage damage to the plant, SOLNI (Solanum nigrum (SOLNI) [8]): 3 (3=41-60%) | percentage damage to the plant, SETFA (Setaria faberi (SETFA) [9]): 5 (5=81-100%) | percentage damage to the plant, LOLPE (Lolium perenne (LOLPE) [10]): 1 (1=0-20%) | percentage damage to the plant, ECHCG [11]: 5 (5=81-100%) | percentage damage to the plant, IPOHE [12]: 1 (1=0-20%)

CCn1c(C)c(-c2csc(Cl)c2)c(=O)c(C(=O)O)c1-c1ccc(Cl)c(Cl)c1 [Compound 37, 5-(5-chloro-3-thienyl)-2-(3,4-dichlorophenyl)-1-ethyl-6-methyl-4-oxo-pyridine-3-carboxylic acid]
Post-emergence Test AMARE, percentage damage to the plant (five-point scale) [1]: 1 (1=0-20%) | Post-emergence Test ECHCG, percentage damage to the plant (five-point scale) [2]: 1 (1=0-20%) | Post-emergence Test IPOHE, percentage damage to the plant (five-point scale) [3]: 3 (3=41-60%) | Post-emergence Test LOLPE, percentage damage to the plant (five-point scale) (Lolium perenne (LOLPE) [4]): 1 (1=0-20%) | Post-emergence Test SETFA, percentage damage to the plant (five-point scale) (Setaria faberi (SETFA) [5]): 1 (1=0-20%) | Post-emergence Test SOLNI, percentage damage to the plant (five-point scale) (Solanum nigrum (SOLNI) [6]): 4 (4=61-80%) | percentage damage to the plant, AMARE [7]: 1 (1=0-20%) | percentage damage to the plant, SOLNI (Solanum nigrum (SOLNI) [8]): 1 (1=0-20%) | percentage damage to the plant, SETFA (Setaria faberi (SETFA) [9]): 1 (1=0-20%) | percentage damage to the plant, LOLPE (Lolium perenne (LOLPE) [10]): 1 (1=0-20%) | percentage damage to the plant, ECHCG [11]: 1 (1=0-20%) | percentage damage to the plant, IPOHE [12]: 1 (1=0-20%)

CCn1c(C)c(-c2ncco2)c(=O)c(C(=O)OC)c1-c1ccc(Cl)c(Cl)c1 [Compound 38, methyl 2-(3,4-dichlorophenyl)-1-ethyl-6-methyl-5-oxazol-2-yl-4-oxo-pyridine-3-carboxylate]
Post-emergence Test AMARE, percentage damage to the plant (five-point scale) [1]: 1 (1=0-20%) | Post-emergence Test ECHCG, percentage damage to the plant (five-point scale) [2]: 1 (1=0-20%) | Post-emergence Test IPOHE, percentage damage to the plant (five-point scale) [3]: 1 (1=0-20%) | Post-emergence Test LOLPE, percentage damage to the plant (five-point scale) (Lolium perenne (LOLPE) [4]): 1 (1=0-20%) | Post-emergence Test SETFA, percentage damage to the plant (five-point scale) (Setaria faberi (SETFA) [5]): 1 (1=0-20%) | Post-emergence Test SOLNI, percentage damage to the plant (five-point scale) (Solanum nigrum (SOLNI) [6]): 1 (1=0-20%) | percentage damage to the plant, AMARE [7]: 1 (1=0-20%) | percentage damage to the plant, SOLNI (Solanum nigrum (SOLNI) [8]): 1 (1=0-20%) | percentage damage to the plant, SETFA (Setaria faberi (SETFA) [9]): 1 (1=0-20%) | percentage damage to the plant, LOLPE (Lolium perenne (LOLPE) [10]): 1 (1=0-20%) | percentage damage to the plant, ECHCG [11]: 1 (1=0-20%) | percentage damage to the plant, IPOHE [12]: 1 (1=0-20%)

CCn1c(C)c(-c2cncn2C)c(=O)c(C(=O)OC)c1-c1ccc(Cl)c(Cl)c1 [Compound 39, methyl 2-(3,4-dichlorophenyl)-1-ethyl-6-methyl-5-(3-methylimidazol-4-yl)-4-oxo-pyridine-3-carboxylate]
Post-emergence Test AMARE, percentage damage to the plant (five-point scale) [1]: 1 (1=0-20%) | Post-emergence Test ECHCG, percentage damage to the plant (five-point scale) [2]: 1 (1=0-20%) | Post-emergence Test IPOHE, percentage damage to the plant (five-point scale) [3]: 1 (1=0-20%) | Post-emergence Test LOLPE, percentage damage to the plant (five-point scale) (Lolium perenne (LOLPE) [4]): 1 (1=0-20%) | Post-emergence Test SETFA, percentage damage to the plant (five-point scale) (Setaria faberi (SETFA) [5]): 1 (1=0-20%) | Post-emergence Test SOLNI, percentage damage to the plant (five-point scale) (Solanum nigrum (SOLNI) [6]): 1 (1=0-20%) | percentage damage to the plant, AMARE [7]: 1 (1=0-20%) | percentage damage to the plant, SOLNI (Solanum nigrum (SOLNI) [8]): 1 (1=0-20%) | percentage damage to the plant, SETFA (Setaria faberi (SETFA) [9]): 1 (1=0-20%) | percentage damage to the plant, LOLPE (Lolium perenne (LOLPE) [10]): 1 (1=0-20%) | percentage damage to the plant, ECHCG [11]: 1 (1=0-20%) | percentage damage to the plant, IPOHE [12]: 1 (1=0-20%)
